The text below walks through data of paper PMC4671662, “Identification of New Molecular Entities (NMEs) as Potential Leads against Tuberculosis from Open Source Compound Repository” (PLoS ONE, 2015).

The test system of assay [1] is A549 (human lung epithelial cells). Briefly: Sulforhodamine B (SRB) cytotoxicity assay. The assay is classed as cell-based. The following applies: 48 h.
Assay [2] deals with Mycobacterium bovis (BCG). Briefly: microbe, parasite or virus in culture. In kind it is cell-based. The conditions noted are these: Mycobacterium tuberculosis variant bovis BCG, 96 h, read-out: BCG MIC.
For assay [3], the system named is Mycobacterium smegmatis (mc^2155). The assay is described as follows: Antimycobacterial assay, turbidometric MIC (OD 600 nm). The conditions noted are these: Mycolicibacterium smegmatis, read-out: M. smeg MIC. The assay is classed as cell-based.
The next assay relates to M. tuberculosis (H37Rv). Briefly: M. tuberculosis (H37Rv) inhibition assay, Alamar Blue MIC. In kind it is cell-based. The following applies: Mycobacterium tuberculosis, 168 h, six days + 24 h.
Assay [4] relates to HepG2 (human hepatoma cells). The assay is described as follows: Sulforhodamine B (SRB) cytotoxicity assay. The assay is classed as cell-based. The conditions noted are these: 48 h.
In another assay the test system is Mycobacterium. Briefly: Minimum Bactericidal Concentration (MBC) test, CFU approach. In kind it is cell-based. The conditions noted are these: for Bacteriocidal/Bacteriostatic: from comparison of MIC and MBC; for MBC compared with MIC: against the test organisms of the study.
Another assay relates to MCF-7. Details: method as in PMID 18507473. The conditions noted are these: cited from earlier work.
The next assay deals with NCI-H460. More on the design: method as in PMID 18507473. The following applies: cited from earlier work.
For a further assay, the system named is SF-264. Details: method as in PMID 18507473. The following applies: cited from earlier work.
Another assay has as its system M. smegmatis (MC^2 155). Briefly: M. smegmatis primary screening, z-score. In kind it is cell-based, Mycobacterium smegmatis. The conditions noted are these: positive controls in primary screening.
Assay [5] has as its system Campylobacter fetus subsp. jejuni. The conditions noted are these: cited from earlier work.
The mark [6] stands for this setting: MC^2155, lowest concentration with 90% growth inhibition, 32 hours.

≈ marks a conversion by molar mass, not a printed value. Where two headings read alike, the source gives them in different places.

For `Cc1ccc(-c2nc3ccccc3s2)cc1` [Compound H117], the concentration for half-maximal inhibition (IC50) in assay [1] was 475 µM; in assay [4], 408 µM. For the same molecule, the MIC in assay [2] was 14.9 µM (≈ 3.36 µg/mL); in assay [3] (setting [6]), 26.8 µM (≈ 6.04 µg/mL); with M. tuberculosis (H37Rv), 12.5 µM. The Bacteriocidal/Bacteriostatic entry with Mycobacterium is “Bacteriostatic”.
With `O=C(CC1(O)c2ccccc2-n2c1nc1ccccc1c2=O)c1ccccc1` (stereo not shown) [Compound H26], the half-inhibitory concentration (IC50) was 368 µM in assay [1]; > 50 µM with MCF-7; 417 µM in [4]; > 50 µM in the assay with NCI-H460; > 50 µM with SF-264. Besides, the MIC in [2] came to 12 µM (≈ 4.44 µg/mL); in assay [3] (setting [6]), 53 µM (≈ 19.5 µg/mL); with M. tuberculosis (H37Rv), 0.4 µM. For the same molecule, the “MBC compared with MIC” value in the assay with Mycobacterium is given as “MBC values equivalent to their MIC values”. In addition, the Bacteriocidal/Bacteriostatic result with Mycobacterium is recorded as “bactericidal activity”.
For `Cc1ccc(C)c(Cn2nnc3c(O)nc(C4CCCN(C(=O)c5ccc(C(C)(C)C)cc5)C4)nc32)c1` (stereo not shown) [Compound H126], the IC50 is 369 µM in [1] and 357 µM in assay [4]. For the same molecule, the MIC is 23.8 µM (≈ 11.9 µg/mL) in assay [2], 30.6 µM (≈ 15.3 µg/mL) in [3] (setting [6]) and 12.5 µM with M. tuberculosis (H37Rv). The Bacteriocidal/Bacteriostatic entry in the assay with Mycobacterium is “Bacteriostatic”.
As to `Nc1ccc(C(=O)CC2(O)c3ccccc3-n3c2nc2ccccc2c3=O)cc1` (stereo not shown) [Compound H136], the values for the IC50 in assay [1] and in assay [4] were 321 µM and 359 µM, respectively. The MIC in assay [2] came out at 11.4 µM (≈ 4.37 µg/mL); in [3] (setting [6]), 42.5 µM (≈ 16.3 µg/mL); in the assay with M. tuberculosis (H37Rv), 1.6 µM. Besides, the “MBC compared with MIC” value with Mycobacterium is reported as “MBC values equivalent to their MIC values”. Moreover, the Bacteriocidal/Bacteriostatic entry with Mycobacterium was “bactericidal activity”.
As for `CO[C@H]1/C=C/O[C@@]2(C)Oc3c(C)c(O)c4c(O)c(c(/C=N/N5CCN(C)CC5)c(O)c4c3C2=O)NC(=O)/C(C)=C\C=C\[C@H](C)[C@H](O)[C@@H](C)[C@@H](O)[C@@H](C)[C@H](OC(C)=O)[C@@H]1C` [Rifampicin, reference compound], the MIC in assay [3] (MC^2155, 32 h) is 2.43 µM (≈ 2 µg/mL). For the same molecule, the mean z-score in the assay on M. smegmatis (MC^2 155) stood at 4.4.
The like results for `NNC(=O)c1ccncc1` [Isoniazid, reference compound] were, in that order, 11 µM (≈ 1.51 µg/mL) and 4.9.
Turning to `O=C(CSc1nnc(COc2ccc(F)cc2)o1)OC1CCCCC1` [Compound H43], the figures for the IC50 in assay [1] and in assay [4] were 335 µM and 373 µM, respectively. The MIC came to 13.5 µM (≈ 4.96 µg/mL) in assay [2], 52 µM (≈ 19 µg/mL) in assay [3] (setting [6]) and 6.28 µM in the assay on M. tuberculosis (H37Rv). The Bacteriocidal/Bacteriostatic result in the assay with Mycobacterium was “Bacteriostatic”.
For the molecule `COc1cc2c(cc1NC(=O)N1CCCCC1c1cccnc1)oc1ccccc12` (stereo not shown) [Compound H15], the IC50 in assay [1] amounted to 526 µM; in assay [4], 510 µM. The MIC in assay [2] stood at 12 µM (≈ 4.83 µg/mL); in [3] (setting [6]), 42 µM (≈ 16.9 µg/mL); with M. tuberculosis (H37Rv), 12.5 µM. In the assay with Mycobacterium, the Bacteriocidal/Bacteriostatic entry is on record as “Bacteriostatic”.
In the case of `CCSc1nsc(NC(=O)Nc2ccc(C(F)(F)F)cc2)n1` [Compound H94], the IC50 in assay [1] turned out to be 443 µM; in assay [4], 599 µM. Further, the results for the MIC (in assay [2]; in assay [3] (setting [6]); in the assay on M. tuberculosis (H37Rv)) were 12.7 µM (≈ 4.42 µg/mL), 25.4 µM (≈ 8.83 µg/mL) and 6.25 µM, respectively. The Bacteriocidal/Bacteriostatic entry with Mycobacterium is “Bacteriostatic”.
For the molecule co-trimoxazole, in assay [5], the minimal bactericidal concentration (MBC) was 125 µg/mL and the MIC is 31.2 µg/mL.
As to `Nc1ccc(C(=O)CSc2nnc3c(n2)CCCC3)cc1` [Compound H134], the half-maximal inhibitory concentration (IC50) was 424 µM in assay [1] and 368 µM in [4]. Also, the figures for the MIC (in assay [2]; in [3] (setting [6]); in the assay on M. tuberculosis (H37Rv)) were 10.9 µM (≈ 3.27 µg/mL), 22.7 µM (≈ 6.82 µg/mL) and 12.5 µM, respectively. The Bacteriocidal/Bacteriostatic result in the assay on Mycobacterium is “Bacteriostatic”.
Consider `O=C(CSc1nnc2scc(-c3ccccc3)n12)Nc1ccc(N2CCCC2)cc1` [Compound H127], for which the IC50 in assay [1] amounted to 411 µM; in assay [4], 348 µM. Further, the MIC in assay [2] was found to be 14.2 µM (≈ 6.19 µg/mL); in assay [3] (setting [6]), 46.6 µM (≈ 20.3 µg/mL); in the assay with M. tuberculosis (H37Rv), 12.5 µM. Also, the Bacteriocidal/Bacteriostatic entry with Mycobacterium was “Bacteriostatic”.
Regarding `Cc1nc(C)c(C(=O)N(c2cccc(C)c2C)C(C(=O)NC2CCCCC2)c2ccccc2)s1` (stereo not shown) [Compound H85], the IC50 in assay [1] came out at 497 µM; in assay [4], 790 µM. Also, the results for the MIC (in assay [2]; in assay [3] (setting [6]); in the assay with M. tuberculosis (H37Rv)) were 11.5 µM (≈ 5.47 µg/mL), 25.1 µM (≈ 12 µg/mL) and 12.5 µM, respectively. The Bacteriocidal/Bacteriostatic entry with Mycobacterium was “Bacteriostatic”.
For the molecule `COc1cccc2c1C(=O)c1c(O)c3c(c(O)c1C2=O)C[C@@](O)(C(=O)CO)C[C@@H]3O[C@H]1C[C@H](N)[C@H](O)[C@H](C)O1` [Doxorubicin, reference compound], the IC50 in assay [1] amounted to 5.2 µM; in assay [4] it was 4.6 µM.
Regarding `O=C(Cn1c(=O)n(Cc2ccc(F)cc2)c(=O)c2ccccc21)Nc1cc(F)ccc1F` [Compound H137], the IC50 in [1] came to 385 µM; in [4], 390 µM. Also, the MIC in [2] amounted to 22.8 µM (≈ 10 µg/mL); in [3] (setting [6]) it was 39.2 µM (≈ 17.2 µg/mL); with M. tuberculosis (H37Rv), 12.5 µM. Moreover, the Bacteriocidal/Bacteriostatic result with Mycobacterium is “Bacteriostatic”.
Turning to `N#Cc1ccc(C(=O)CC2(O)c3ccccc3-n3c2nc2ccccc2c3=O)cc1` (stereo not shown) [Compound H27], the half-maximal inhibitory concentration (IC50) in assay [1] came to 902 µM; in assay [4], 444 µM. The MIC in [2] turned out to be 6.58 µM (≈ 2.59 µg/mL); in [3] (setting [6]) it was 12.8 µM (≈ 5.05 µg/mL); in the assay with M. tuberculosis (H37Rv), 1.56 µM. Also, the Bacteriocidal/Bacteriostatic result in the assay with Mycobacterium is listed as “Bacteriostatic”.
